We go through 16 molecules from patent US20230101747A1 (Schrödinger, Inc., priority 2019, published 2023).

The term IC50 denotes the concentration that gives 50% inhibition.

The assay deals with T1, Full length human CDC7 protein co-expressed with DBF4 (Homo sapiens, UniProt O00311).
T1 construct: Full length human CDC7 protein co-expressed with DBF4; purchased SignalChem (China)
T1 sequence (O00311 whole entry): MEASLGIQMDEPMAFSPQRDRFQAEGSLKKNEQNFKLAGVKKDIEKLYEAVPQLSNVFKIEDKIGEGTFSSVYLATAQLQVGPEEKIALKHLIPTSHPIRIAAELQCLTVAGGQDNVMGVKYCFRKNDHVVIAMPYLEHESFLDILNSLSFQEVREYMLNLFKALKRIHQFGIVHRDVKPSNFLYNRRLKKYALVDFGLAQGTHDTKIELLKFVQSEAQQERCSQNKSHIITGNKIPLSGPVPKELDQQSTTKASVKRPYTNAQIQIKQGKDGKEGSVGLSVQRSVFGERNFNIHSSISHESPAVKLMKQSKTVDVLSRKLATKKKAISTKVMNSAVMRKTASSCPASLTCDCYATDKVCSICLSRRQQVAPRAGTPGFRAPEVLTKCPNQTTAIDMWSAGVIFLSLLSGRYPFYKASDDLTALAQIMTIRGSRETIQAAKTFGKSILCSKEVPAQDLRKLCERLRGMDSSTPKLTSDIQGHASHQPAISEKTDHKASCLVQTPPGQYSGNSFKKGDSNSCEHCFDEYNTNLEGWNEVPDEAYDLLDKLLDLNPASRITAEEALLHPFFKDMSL
T1 sequence (Q9UBU7 whole entry partner): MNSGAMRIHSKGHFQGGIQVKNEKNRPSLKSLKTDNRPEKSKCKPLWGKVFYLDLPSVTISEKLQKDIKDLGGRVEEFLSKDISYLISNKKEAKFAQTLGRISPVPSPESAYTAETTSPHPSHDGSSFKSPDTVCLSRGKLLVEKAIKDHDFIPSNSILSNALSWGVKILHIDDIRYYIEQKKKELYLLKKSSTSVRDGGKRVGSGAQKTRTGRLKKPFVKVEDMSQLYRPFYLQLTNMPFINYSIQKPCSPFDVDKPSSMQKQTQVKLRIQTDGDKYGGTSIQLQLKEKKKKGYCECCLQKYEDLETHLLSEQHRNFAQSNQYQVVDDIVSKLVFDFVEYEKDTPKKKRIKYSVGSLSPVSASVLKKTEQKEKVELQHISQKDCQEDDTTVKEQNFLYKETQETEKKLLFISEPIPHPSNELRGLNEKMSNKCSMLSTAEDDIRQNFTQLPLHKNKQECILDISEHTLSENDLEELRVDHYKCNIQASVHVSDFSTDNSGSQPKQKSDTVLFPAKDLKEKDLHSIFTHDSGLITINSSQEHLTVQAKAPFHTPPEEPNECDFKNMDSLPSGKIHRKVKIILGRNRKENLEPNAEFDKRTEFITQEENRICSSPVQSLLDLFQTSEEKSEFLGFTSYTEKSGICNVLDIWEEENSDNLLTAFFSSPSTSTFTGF
The assay is described as follows: CDC7 kinase biochemical assay (ADP-Glo, PDKtide substrate). To be noted: 0.1 nM CDC7/DBF4, 1 uM ATP, 10 uM PDKtide, 4 h; read-out: CDC7 ADP-Glo PDKtide IC50. The procedure: CDC7 Kinase Biochemical Assay Protocol:
Full length human CDC7 protein co-expressed with DBF4 was purchased from SignalChem (China). CDC7 kinase activity was determined with PDKtide (SignalChem) as a substrate and by measuring ADP production using the ADP-Glo™ Kinase Assay kit (Promega) following the manufacturers instructions. The kinase reaction was performed using the following conditions: Buffer: 40 mM Tris pH 7.5, 20 mM MgCl2, 0.1 mg/ml BSA and 50 uM DTT. Final reaction mix contained 0.1 nM CDC7/DBF4, 1 uM ATP and 10 uM PDKtide. The kinase reaction time was 4 h. The ADP-Glo signal was measured using an EnVision plate reader (PerkinELmer).
Percent inhibition of CDC7 kinase activity was calculated based on the following formula: […]
SSample: the signal of compounds SHigh ctrl: the signal of high control (DMSO) SLow Ctrl: the signal of low control (positive control CDC7 inhibitor)
(ADP-Glo turns the ADP formed in a reaction into a luminescent signal.)
For the molecule `O=C1NC([C@H]2[C@@H]3COC[C@@H]32)CN2CC(F)(F)Cc3c(-c4cn[nH]c4)sc1c32` (single isomer, unassigned) [Compound 123], the IC50 is below 1 nM.

With `COC[C@@H]1[C@H](C2CCC2)NC(=O)c2sc(-c3cn[nH]c3)c3c2N1CCO3` (single isomer, unassigned) [Compound 99], the IC50 was 1 to 10 nM.

`O=C1NC([C@H]2[C@@H]3COC[C@@H]32)CN2CC(F)(F)Cc3c(-c4cn[nH]c4)sc1c32` (single isomer, unassigned) [Compound 124]: the 50% inhibitory concentration (IC50) was below 1 nM.

In the case of `N#CC[C@@H]1CNC(=O)c2sc(-c3cn[nH]c3)c3c2N1CCC3` [Compound 97, (R)-2-(9-oxo-2-(1H-pyrazol-4-yl)-4,5,6,7,8,9-hexahydro-3H-1-thia-5a,8-diazabenzo[cd]azulen-6-yl)acetonitrile], the IC50 is below 1 nM.

Take `C[C@H]1CN2CCOc3c(-c4ccncc4)sc(c32)C(=O)N1` [Compound 15, (S)-7-methyl-2-(pyridin-4-yl)-4,5,7,8-tetrahydro-3-oxa-1-thia-5a,8-diazabenzo[cd]azulen-9(6H)-one]: the IC50 is below 1 nM.

For the molecule `O=C1N[C@H](C23CCC(CC2)O3)CN2CC(F)(F)Cc3c(-c4cn[nH]c4)sc1c32` (single isomer, unassigned) [Compound 122], the IC50 was above 10 nM.

As for `CC(C)(O)C[C@@H]1CN2CC(F)(F)Cc3c(-c4cn[nH]c4)sc(c32)C(=O)N1` [Compound 131, (R)-4,4-difluoro-7-(2-hydroxy-2-methylpropyl)-2-(1H-pyrazol-4-yl)-4,5,7,8-tetrahydro-3H-1-thia-5a,8-diazabenzo[cd]azulen-9(6H)-one], the IC50 was below 1 nM.

For `Cc1cnn(C[C@H]2COc3c(-c4cn[nH]c4)sc4c3N2CCNC4=O)c1` [Compound 45, (S)-5-((4-methyl-1H-pyrazol-1-yl)methyl)-2-(1H-pyrazol-4-yl)-4,5,7,8-tetrahydro-3-oxa-1-thia-5a,8-diazabenzo[cd]azulen-9(6H)-one], the IC50 was 1 to 10 nM.

As to `O=C1N[C@@H]([C@@H]2CCCO2)CN2CC(F)(F)Cc3c(-c4cn[nH]c4)sc1c32` (single isomer, unassigned) [Compound 120], the half-maximal inhibitory concentration (IC50) was below 1 nM.

In the case of `CC1C(C2CCC2)NC(=O)c2sc(-c3cn[nH]c3)c3c2N1CCO3` (racemic) [Compound 96, 10-cyclobutyl-9-methyl-3-(1H-pyrazol-4-yl)-5-oxa-2-thia-8,11-diazatricyclo[6.4.1.0^4,13] trideca-1(13),3-dien-12-one], the IC50 is below 1 nM.

Turning to `O=C1N[C@@H](C2CCCCO2)CN2CC(F)(F)Cc3c(-c4cn[nH]c4)sc1c32` (single isomer, unassigned) [Compound 139], the half-inhibitory concentration (IC50) was below 1 nM.

Consider `CC1(C)NC(=O)c2sc(-c3ccnc4[nH]ccc34)c3c2N1CCO3` [Compound 14, 6,6-dimethyl-2-(1H-pyrrolo[2,3-b]pyridin-4-yl)-4,5,6,7-tetrahydro-8H-3-oxa-1-thia-5a,7-diazaacenaphthylen-8-one], for which the IC50 fell in the range of 1 to 10 nM.

In the case of `O=C1NC(C2CC(F)(F)C2)CN2CC(F)(F)Cc3c(-c4cn[nH]c4)sc1c32` (single isomer, unassigned) [Compound 113, (R or S)-7-(3,3-difluorocyclobutyl)-4,4-difluoro-2-(1H-pyrazol-4-yl)-4,5,7,8-tetrahydro-3H-1-thia-5a,8-diazabenzo[cd]azulen-9(6H)-one], the IC50 was below 1 nM.

Turning to `Cc1[nH]ncc1-c1sc2c3c1OCCN3C(C)(C)NC2=O` [Compound 6, 6,6-dimethyl-2-(5-methyl-1H-pyrazol-4-yl)-4,5,6,7-tetrahydro-8H-3-oxa-1-thia-5a,7-diazaacenaphthylen-8-one], the IC50 lay in the range of 1 to 10 nM.

Take `O=C1N[C@H](C2CCCCO2)CN2CC(F)(F)Cc3c(-c4cn[nH]c4)sc1c32` (single isomer, unassigned) [Compound 138]: the IC50 lay in the range of 1 to 10 nM.

For `O=C1NC(C2CCCCO2)CN2CCCc3c(-c4cn[nH]c4)sc1c32` (single isomer, unassigned) [Compound 107], the IC50 was below 1 nM.
